Experimental data reported in patent publication US20250017940A1, “SELECTIVE PEPTIDOMIMETIC MODULATORS OF CAV2.2 (N-TYPE) VOLTAGE-GATED CALCIUM CHANNELS AND USES THEREOF” (New York University, priority 2023, published 2025).

What was measured:
[1] = target: T1, Cav2.2 (N-type) calcium channels (Rattus norvegicus, UniProt Q02294); assay: Whole-cell patch-clamp, isolated N-type Ca2+ currents in DRG neurons; type: cell-based; details: for normalized peak N-type ICa2+ density: normalized to DMSO (1.00±0.07)
T1 construct: Recordings were obtained from acutely dissociated DRG neurons; endogenous in cells; host or cells: primary rat DRG neurons
Procedure: Recordings were obtained from acutely dissociated DRG neurons as described earlier (Bellampalli et al., 2019). Patch-clamp recordings were performed at room temperature (22-24° C.). Currents were recorded using an EPC 10 Amplifier-HEKA (HEKA Elektronik, Ludwigshafen, Germany) linked to a computer with Patchmaster software. […]
(§1) For total calcium current (ICa^2+) recordings, the external solution consisted of the following (in mM): 110 N-methyl-D-glucamine, 10 BaCl2, 30 TEA-Cl, 10 HEPES, 10 glucose, and 0.001 TTX (pH 7.29 adjusted with TEA-OH, and mOsm/L=310). Patch pipettes were filled with an internal solution containing (in mM): 150 CsCl2, 10 HEPES, 5 Mg-ATP, and 5 BAPTA, (pH 7.2 adjusted with CsOH, and mOsm/L-305). Peak Ca^2+ current was acquired by applying 200-millisecond voltage steps from −70 to +60 mV in 10-mV increments from a holding potential of −90 mV to obtain the current-voltage (I-V) relation. To measure the different subtypes of Ca^2+ channels, DRGs were treated with a Cav inhibitor cocktail omitting the inhibitor specific to the subtype being tested (e.g., to measure Cav2.2 currents, ω-conotoxin GVIA is omitted): Nifedipine (10 μM, L-type), ω-Conotoxin-GVIA (500 nM, […]) (Feng, et al., 2001), SNX482 (200 nM, R-type) (Newcomb et al., 1998), ω-agatoxin (200 nM, P/Q-type) (Mintz et al., 1992), TTA-P2 (1 μM, T-type) (Choe et al., 2011).
(§2) Normalization of currents to each cell's capacitance (pF) was performed to allow for collection of current density data. For I-V curves, functions were fitted to data using a non-linear least squares analysis. I-V curves were fitted using double Boltzmann functions:
(§3) where x is the pre-pulse potential, V1/2 is the mid-point potential, and k is the corresponding slope factor for single Boltzmann functions. Double Boltzmann fits were used to describe the shape of the curve, not to imply the existence of separate channel populations. Numbers 1 and 2 simply indicate first and second mid-points; a along with g are fitting parameters.
(§4) Activation curves were obtained from the I-V curves by dividing the peak current at each depolarizing step by the driving force according to the equation: G=I/(Vmem-Erev), where I is the peak current, Vmem is the membrane potential and Erev is the reversal potential. The conductance (G) was normalized against the maximum conductance (Gmax). For total and the different subtypes of Ca^2+ currents, steady-state inactivation (SSI) curves were obtained by applying an H-infinity protocol that consisted of 1.5-seconds conditioning pre-pulses from −100 to +30 mV in 10-mV increments followed by a 20-millisecond test pulse to +10 mV. For Na^+ currents, SSI curves were obtained by applying an H-infinity protocol that consisted of 1-second conditioning pre-pulses from −120 to +10 mV in 10-mV increments followed by a 200-millisecond test pulse to +10 mV. Inactivation curves were obtained by dividing the peak current recorded at the test pulse by the maximum current (Imax). Activation and SSI curves were fitted with the Boltzmann equation.

[2] = system: Cav1 (L-type) calcium channels; assay: Whole-cell patch-clamp, isolated L-type Ca2+ currents in DRG neurons; type: cell-based, rat
Procedure: (§5) Recordings were obtained from acutely dissociated DRG neurons as described earlier (Bellampalli et al., 2019). Patch-clamp recordings were performed at room temperature (22-24° C.). Currents were recorded using an EPC 10 Amplifier-HEKA (HEKA Elektronik, Ludwigshafen, Germany) linked to a computer with Patchmaster software. DRG neurons were incubated overnight (˜16-24 hours) with 20 μM of CBD3063.
as §1, §2, §3, §4

[3] = target: T2, Cav2.1 (P/Q-type) calcium channels (Rattus norvegicus, UniProt P54282); assay: Whole-cell patch-clamp, isolated P/Q-type Ca2+ currents in DRG neurons; type: cell-based
T2 construct: Recordings were obtained from acutely dissociated DRG neurons; endogenous in cells; host or cells: acutely dissociated rat DRG neurons
Procedure: as §5, §1, §2, §3, §4

[4] = system: rat model of spared nerve injury (SNI); assay: Spared nerve injury (SNI) model, mechanical allodynia (von Frey paw withdrawal threshold); type: in vivo
Procedure: Rats were anesthetized with ketamine/xylazine 80/12 mg/kg intraperitoneally (i.p.) (Sigma-Aldrich, St. Louis, MO), and their head was placed in a stereotaxic frame. The cisterna magna was exposed and incised. As previously reported, an 8-cm catheter (PE-10; Stoelting, Wood Dale, IL) was implanted, terminating in the lumbar region of the spinal cord (Yaksh & Rudy, 1976). Catheters were sutured (using 3-0 silk sutures) into the deep muscle and externalized at the back of the neck. Autoclips were used to close the skin, and other surgeries were performed after a 5- to 7-day recovery period.
The neuropathic pain model induced by spared nerve injury (SNI) in rats was performed as previously described. Adult male rats (250 g, Envigo, Placentia, CA) were anesthetized with isoflurane (5% induction, 2% maintenance in 2 L/min air), and skin on the lateral surface of the left hind thigh was incised. Then, the biceps femoris muscle was dissected to expose the three terminal branches of the sciatic nerve. The common peroneal and tibial branches were tightly ligated with 4-0 silk and axotomized 2.0 mm distal to the ligation. Closure of the incision was made in two layers. The muscle was sutured once with 5-0 absorbable suture; skin was autoclipped. Animals were allowed to recover for 7 days before any testing. […]
Mechanical allodynia was assessed by measuring rats' paw withdrawal threshold in response to probing with a series of fine calibrated filaments (von Frey, Stoelting, Wood Dale, IL). Rats were placed in suspended plastic cages with wire mesh floor, and each von Frey filament was applied perpendicularly to the plantar surface of the paw. The “up-and-down” method (sequential increase and decrease of the stimulus strength) was used to determine the withdrawal threshold Dixon's nonparametric method was used for data analysis, as described by Chaplan et al., 1994. Data were expressed as the mean withdrawal threshold.

[5] = 20 μM overnight, mean ± SEM (n cells)
[6] = single intrathecal 0.3 μg/kg, 7 days after SNI, male rats

T2 sequence (P54282 whole entry): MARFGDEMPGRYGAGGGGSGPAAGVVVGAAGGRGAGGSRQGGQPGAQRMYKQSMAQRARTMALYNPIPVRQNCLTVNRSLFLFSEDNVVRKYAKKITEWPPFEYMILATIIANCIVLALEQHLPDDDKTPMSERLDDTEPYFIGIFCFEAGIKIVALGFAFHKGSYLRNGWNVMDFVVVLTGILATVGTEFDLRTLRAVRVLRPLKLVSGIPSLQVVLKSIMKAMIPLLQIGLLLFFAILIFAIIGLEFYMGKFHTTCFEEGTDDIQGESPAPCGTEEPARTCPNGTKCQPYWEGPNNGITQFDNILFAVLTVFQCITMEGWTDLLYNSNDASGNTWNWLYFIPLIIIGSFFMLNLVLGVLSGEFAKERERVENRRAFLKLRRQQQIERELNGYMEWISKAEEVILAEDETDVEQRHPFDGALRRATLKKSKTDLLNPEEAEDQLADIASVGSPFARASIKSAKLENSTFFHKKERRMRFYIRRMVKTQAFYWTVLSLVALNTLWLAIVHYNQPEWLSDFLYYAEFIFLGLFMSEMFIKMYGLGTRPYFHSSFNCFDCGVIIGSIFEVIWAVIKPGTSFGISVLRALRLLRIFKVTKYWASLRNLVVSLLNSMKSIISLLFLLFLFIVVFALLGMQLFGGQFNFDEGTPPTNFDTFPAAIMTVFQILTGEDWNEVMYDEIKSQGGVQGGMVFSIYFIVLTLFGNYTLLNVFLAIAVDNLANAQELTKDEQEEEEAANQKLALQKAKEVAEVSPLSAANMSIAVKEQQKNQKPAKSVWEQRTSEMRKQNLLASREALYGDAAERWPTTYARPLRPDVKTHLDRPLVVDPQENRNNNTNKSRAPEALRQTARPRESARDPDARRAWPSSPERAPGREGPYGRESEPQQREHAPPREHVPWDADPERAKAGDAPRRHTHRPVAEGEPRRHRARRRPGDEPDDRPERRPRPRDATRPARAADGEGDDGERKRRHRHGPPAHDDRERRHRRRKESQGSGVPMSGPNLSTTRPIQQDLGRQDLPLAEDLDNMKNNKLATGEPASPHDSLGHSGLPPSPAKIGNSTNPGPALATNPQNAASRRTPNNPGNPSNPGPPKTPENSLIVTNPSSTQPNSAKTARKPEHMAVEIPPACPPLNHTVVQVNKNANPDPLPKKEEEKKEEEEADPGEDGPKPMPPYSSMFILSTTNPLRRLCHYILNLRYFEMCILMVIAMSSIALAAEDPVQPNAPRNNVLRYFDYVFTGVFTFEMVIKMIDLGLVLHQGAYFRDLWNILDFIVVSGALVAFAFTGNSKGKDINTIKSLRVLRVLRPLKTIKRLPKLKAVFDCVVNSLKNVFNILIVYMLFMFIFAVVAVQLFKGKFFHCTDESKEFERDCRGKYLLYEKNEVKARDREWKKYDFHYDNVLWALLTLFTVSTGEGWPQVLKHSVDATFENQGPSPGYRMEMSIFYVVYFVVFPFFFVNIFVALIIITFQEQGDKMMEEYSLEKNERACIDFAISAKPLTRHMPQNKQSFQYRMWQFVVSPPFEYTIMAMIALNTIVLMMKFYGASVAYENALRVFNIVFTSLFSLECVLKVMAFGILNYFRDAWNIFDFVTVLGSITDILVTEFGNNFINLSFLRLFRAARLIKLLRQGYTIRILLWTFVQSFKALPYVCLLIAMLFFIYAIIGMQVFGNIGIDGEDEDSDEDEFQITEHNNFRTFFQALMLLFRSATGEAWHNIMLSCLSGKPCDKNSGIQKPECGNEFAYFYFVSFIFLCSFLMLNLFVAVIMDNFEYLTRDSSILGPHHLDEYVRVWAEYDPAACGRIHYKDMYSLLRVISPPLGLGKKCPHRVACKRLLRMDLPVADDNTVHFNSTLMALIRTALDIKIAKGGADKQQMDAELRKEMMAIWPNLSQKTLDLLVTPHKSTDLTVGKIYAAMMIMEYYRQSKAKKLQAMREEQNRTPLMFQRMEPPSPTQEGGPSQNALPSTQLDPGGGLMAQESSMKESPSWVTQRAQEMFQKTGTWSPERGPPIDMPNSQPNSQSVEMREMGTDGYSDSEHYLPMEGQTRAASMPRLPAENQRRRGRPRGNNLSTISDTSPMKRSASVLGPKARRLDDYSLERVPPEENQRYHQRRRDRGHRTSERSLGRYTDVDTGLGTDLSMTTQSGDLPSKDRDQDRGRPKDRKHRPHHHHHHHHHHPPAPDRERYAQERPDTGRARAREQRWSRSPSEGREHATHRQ
T2 sequence (P54290 25-1091 partner): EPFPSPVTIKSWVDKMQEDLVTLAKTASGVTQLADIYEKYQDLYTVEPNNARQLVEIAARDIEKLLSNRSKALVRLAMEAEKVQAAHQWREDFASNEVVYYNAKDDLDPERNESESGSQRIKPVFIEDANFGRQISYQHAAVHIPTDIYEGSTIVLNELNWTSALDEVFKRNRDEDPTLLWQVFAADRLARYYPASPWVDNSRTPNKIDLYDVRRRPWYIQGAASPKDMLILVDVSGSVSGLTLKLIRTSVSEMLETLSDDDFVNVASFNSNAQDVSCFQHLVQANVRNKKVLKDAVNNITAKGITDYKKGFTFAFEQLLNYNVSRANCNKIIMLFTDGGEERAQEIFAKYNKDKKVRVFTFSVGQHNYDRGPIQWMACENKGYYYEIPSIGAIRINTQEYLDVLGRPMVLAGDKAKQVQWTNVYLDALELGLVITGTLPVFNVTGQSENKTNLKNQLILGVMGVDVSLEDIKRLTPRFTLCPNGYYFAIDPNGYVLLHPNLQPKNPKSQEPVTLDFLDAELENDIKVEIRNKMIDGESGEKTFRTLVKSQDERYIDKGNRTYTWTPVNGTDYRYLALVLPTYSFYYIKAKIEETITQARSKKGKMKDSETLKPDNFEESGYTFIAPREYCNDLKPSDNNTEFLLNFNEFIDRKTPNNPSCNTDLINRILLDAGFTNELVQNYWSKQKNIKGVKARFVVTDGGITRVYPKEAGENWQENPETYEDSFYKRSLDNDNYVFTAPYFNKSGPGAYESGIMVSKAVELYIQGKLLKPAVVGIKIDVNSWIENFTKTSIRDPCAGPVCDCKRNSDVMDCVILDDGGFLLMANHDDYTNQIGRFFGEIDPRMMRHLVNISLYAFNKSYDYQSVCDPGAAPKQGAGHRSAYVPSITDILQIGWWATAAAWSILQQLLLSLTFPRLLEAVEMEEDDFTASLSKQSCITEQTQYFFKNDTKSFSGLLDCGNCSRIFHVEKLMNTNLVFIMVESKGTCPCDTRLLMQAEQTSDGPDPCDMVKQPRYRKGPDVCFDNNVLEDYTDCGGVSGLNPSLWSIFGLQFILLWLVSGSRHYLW
T2 sequence (P54287 whole entry partner): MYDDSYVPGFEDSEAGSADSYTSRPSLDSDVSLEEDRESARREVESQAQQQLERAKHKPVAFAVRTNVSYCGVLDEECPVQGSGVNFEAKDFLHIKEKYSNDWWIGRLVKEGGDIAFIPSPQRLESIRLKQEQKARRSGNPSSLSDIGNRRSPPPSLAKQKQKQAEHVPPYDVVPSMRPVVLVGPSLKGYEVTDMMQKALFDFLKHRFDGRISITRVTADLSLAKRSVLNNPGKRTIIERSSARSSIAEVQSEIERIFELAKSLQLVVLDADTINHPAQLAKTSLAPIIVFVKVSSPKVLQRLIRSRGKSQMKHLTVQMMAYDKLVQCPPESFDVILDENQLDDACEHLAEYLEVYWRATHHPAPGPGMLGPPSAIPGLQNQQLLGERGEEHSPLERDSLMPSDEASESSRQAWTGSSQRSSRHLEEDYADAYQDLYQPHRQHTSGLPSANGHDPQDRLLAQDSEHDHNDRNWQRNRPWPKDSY

normalized peak N-type ICa2+ density ([1]; 2 μM overnight): 0.93±1.07 | peak N-type calcium current density ([1]; 20 μM overnight, +10 mV (DMSO: −104.00±11.32)): −69.18±6.54 pA/pF | decrease of N-type currents at peak current density ([1]; 20 μM overnight, +10 mV, vs control group): ~33.5% | N-type Ca2+ currents, activation V1/2 [1, 5]: −5.275 ± 0.669 (17) mV | N-type Ca2+ currents, activation k (slope factor) [1, 5]: 5.616 ± 0.566 (17) | N-type Ca2+ currents, inactivation V1/2 [1, 5]: −31.129 ± 2.169 (17) mV | N-type Ca2+ currents, inactivation k (slope factor) [1, 5]: −17.247 ± 2.104 (17) | normalized peak N-type ICa2+ density ([1]; 20 μM overnight): 0.74±0.04 | normalized peak N-type ICa2+ density ([1]; 50 μM overnight): 0.65±0.06 | effect on Ca2+ influx through Cav2.1 (P/Q-type) channels (current density-voltage curve, peak current density) ([3]; 20 μM overnight vs 0.1% DMSO): does not alter | P/Q-type Ca2+ currents, activation V1/2 [3, 5]: −3.265 ± 0.824 (7) mV | P/Q-type Ca2+ currents, activation k (slope factor) [3, 5]: 4.186 ± 0.663 (7) | P/Q-type Ca2+ currents, inactivation V1/2 [3, 5]: −18.667 ± 1.688 (7) mV | P/Q-type Ca2+ currents, inactivation k (slope factor) [3, 5]: −9.396 ± 1.470 (7)
SMILES: CC(=O)N[C@@H]1CCCN(C(=O)NCCCNc2ccccn2)C1 [CBD3063, (3R)-3-acetamido-N-[3-(pyridin-2-ylamino)propyl]piperidine-1-carboxamide]
effect on Ca2+ influx through Cav1 (L-type) channels (current density-voltage curve, peak current density) ([2]; 20 μM overnight vs 0.1% DMSO): does not alter | L-type Ca2+ currents, activation V1/2 [2, 5]: −2.704 ± 0.710 (7) mV | L-type Ca2+ currents, activation k (slope factor) [2, 5]: 5.528 ± 0.615 (7) | L-type Ca2+ currents, inactivation V1/2 [2, 5]: −10.128 ± 2.133 (7) mV | L-type Ca2+ currents, inactivation k (slope factor) [2, 5]: −4.961 ± 1.976 (7) | tolerance (loss of antinociception) ([4]; repeated i.t. 0.3 μg/kg once a day for 14 days): without any tolerance | duration of reversal of mechanical allodynia with repeated intrathecal dosage ([4]; repeated i.t. 0.3 μg/kg, rats with chronic neuropathic pain): > 14 days | area under the curve of paw withdrawal threshold ([4]; repeated i.t. injection 0.3 μg/kg once a day for 14 days (DMSO: 3.37±0.86)): 47.26±8.22 | area under the curve of paw withdrawal threshold ([4]; single i.t. injection 0.3 μg/kg, 0.5 to 36 hours (DMSO: 7.650±0.84)): 57.05±3.84 | duration of reversal of mechanical allodynia [4, 6]: up to 36 hours | start of reversal of mechanical allodynia post-injection [4, 6]: 60 min
